Laboratory results: ChEMBL document CHEMBL3885881, “DrugMatrix”

Species: Rattus norvegicus
Assay: DrugMatrix - Regimen: Daily Repeat
Format: toxicity, organism-based, Sprague-Dawley
Set-up: regimen Daily Repeat, gender Male, age 6-8 weeks
Conditions: in vivo, po, route oral GAVAGE, vehicle .5 % CMC; for ABSOLUTE BASOPHIL / ABSOLUTE EOSINOPHIL / ABSOLUTE LYMPHOCYTE / ABSOLUTE MONOCYTE / ABSOLUTE SEGMENTED NEUTROPHIL / BASOPHIL / EOSINOPHIL / ERYTHROCYTE COUNT / HEMATOCRIT / HEMOGLOBIN / LEUKOCYTE COUNT / LYMPHOCYTE / MEAN CORPUSCULAR HEMOGLOBIN / MEAN CORPUSCULAR HEMOGLOBIN CONCENTRATION / MEAN CORPUSCULAR VOLUME / MONOCYTE / NEUTROPHIL / NUCLEATED RED BLOOD CELLS / PLATELET COUNT: tissue Blood; for ALANINE AMINOTRANSFERASE / ALBUMIN / ALKALINE PHOSPHATASE / ASPARTATE AMINOTRANSFERASE / BLOOD UREA NITROGEN / CARBON DIOXIDE / CHLORIDE / CHOLESTEROL / CREATINE PHOSPHOKINASE / CREATININE / GLUCOSE / LACTATE DEHYDROGENASE / LIPASE / PHOSPHORUS / POTASSIUM / SODIUM / TOTAL BILIRUBIN / TOTAL PROTEIN / URIC ACID: tissue Plasma
[1] = 0 mg/kg, 72 h, dose level Control, time 3 day
[2] = 0 mg/kg, 120 h, dose level Control, time 5 day
[3] = 55 mg/kg, 72 h, dose level Low, time 3 day

CCN1CCCC1CNC(=O)c1cc(S(N)(=O)=O)ccc1OC (centres undefined) [SULPIRIDE]
ABSOLUTE BASOPHIL [1]: 0 CELLS/uL
ABSOLUTE EOSINOPHIL [1]: 0 CELLS/uL
ABSOLUTE LYMPHOCYTE [1]: 12269.67 CELLS/uL
ABSOLUTE MONOCYTE [1]: 160.33 CELLS/uL
ABSOLUTE SEGMENTED NEUTROPHIL [1]: 970 CELLS/uL
BASOPHIL [1]: 0%
EOSINOPHIL [1]: 0%
ERYTHROCYTE COUNT [1]: 5.76 x10E6/uL
HEMATOCRIT [1]: 36.57%
HEMOGLOBIN [1]: 14.22 G/DL
LEUKOCYTE COUNT [1]: 13.4 x10E3/uL
LYMPHOCYTE [1]: 91.67%
MEAN CORPUSCULAR HEMOGLOBIN [1]: 24.67 pg
MEAN CORPUSCULAR HEMOGLOBIN CONCENTRATION [1]: 38.85 G/DL
MEAN CORPUSCULAR VOLUME [1]: 63.52 fL
MONOCYTE [1]: 1.17%
NEUTROPHIL [1]: 7.17%
NUCLEATED RED BLOOD CELLS [1]: 0.33 /100WBC
PLATELET COUNT [1]: 1250.83 x10E3/uL
ALANINE AMINOTRANSFERASE [1]: 49.17 u/L
ALBUMIN [1]: 4.33 G/DL
ALKALINE PHOSPHATASE [1]: 378.5 u/L
ASPARTATE AMINOTRANSFERASE [1]: 82.17 u/L
BLOOD UREA NITROGEN [1]: 15 mg/dL
CARBON DIOXIDE [1]: 34.33 mmol/L
CHLORIDE [1]: 99.17 MEQ/L
CHOLESTEROL [1]: 71.17 mg/dL
CREATINE PHOSPHOKINASE [1]: 258.67 u/L
CREATININE [1]: 0.18 mg/dL
GLUCOSE [1]: 142.67 mg/dL
LACTATE DEHYDROGENASE [1]: 154.33 u/L
LIPASE [1]: 9 u/L
PHOSPHORUS [1]: 11.67 mg/dL
POTASSIUM [1]: 7.13 MEQ/L
SODIUM [1]: 142.22 MEQ/L
TOTAL BILIRUBIN [1]: 0.18 mg/dL
TOTAL PROTEIN [1]: 5.77 G/DL
URIC ACID [1]: 1.55 mg/dL
ABSOLUTE BASOPHIL [2]: 0 CELLS/uL
ABSOLUTE EOSINOPHIL [2]: 23.33 CELLS/uL
ABSOLUTE LYMPHOCYTE [2]: 14943.67 CELLS/uL
ABSOLUTE MONOCYTE [2]: 32 CELLS/uL
ABSOLUTE SEGMENTED NEUTROPHIL [2]: 1084.33 CELLS/uL
BASOPHIL [2]: 0%
EOSINOPHIL [2]: 0.17%
ERYTHROCYTE COUNT [2]: 5.71 x10E6/uL
HEMATOCRIT [2]: 35.28%
HEMOGLOBIN [2]: 14.27 G/DL
LEUKOCYTE COUNT [2]: 16.08 x10E3/uL
LYMPHOCYTE [2]: 93%
MEAN CORPUSCULAR HEMOGLOBIN [2]: 25.02 pg
MEAN CORPUSCULAR HEMOGLOBIN CONCENTRATION [2]: 40.43 G/DL
MEAN CORPUSCULAR VOLUME [2]: 61.82 fL
MONOCYTE [2]: 0.17%
NEUTROPHIL [2]: 6.67%
NUCLEATED RED BLOOD CELLS [2]: 0.33 /100WBC
PLATELET COUNT [2]: 1274 x10E3/uL
ALANINE AMINOTRANSFERASE [2]: 54.17 u/L
ALBUMIN [2]: 4.22 G/DL
ALKALINE PHOSPHATASE [2]: 373.17 u/L
ASPARTATE AMINOTRANSFERASE [2]: 81.83 u/L
BLOOD UREA NITROGEN [2]: 16.67 mg/dL
CARBON DIOXIDE [2]: 30.33 mmol/L
CHLORIDE [2]: 99 MEQ/L
CHOLESTEROL [2]: 71 mg/dL
CREATINE PHOSPHOKINASE [2]: 273.5 u/L
CREATININE [2]: 0.22 mg/dL
GLUCOSE [2]: 141.83 mg/dL
LACTATE DEHYDROGENASE [2]: 153.67 u/L
LIPASE [2]: 10.33 u/L
PHOSPHORUS [2]: 11.38 mg/dL
POTASSIUM [2]: 7.08 MEQ/L
SODIUM [2]: 142.75 MEQ/L
TOTAL BILIRUBIN [2]: 0.18 mg/dL
TOTAL PROTEIN [2]: 6.1 G/DL
URIC ACID [2]: 1.67 mg/dL
ABSOLUTE BASOPHIL [3]: 0 CELLS/uL
ABSOLUTE EOSINOPHIL [3]: 0 CELLS/uL
ABSOLUTE LYMPHOCYTE [3]: 13264 CELLS/uL
ABSOLUTE MONOCYTE [3]: 100 CELLS/uL
ABSOLUTE SEGMENTED NEUTROPHIL [3]: 869.33 CELLS/uL
BASOPHIL [3]: 0%
EOSINOPHIL [3]: 0%
ERYTHROCYTE COUNT [3]: 5.78 x10E6/uL
HEMATOCRIT [3]: 37.4%
HEMOGLOBIN [3]: 14.93 G/DL
LEUKOCYTE COUNT [3]: 14.23 x10E3/uL
LYMPHOCYTE [3]: 93.33%
MEAN CORPUSCULAR HEMOGLOBIN [3]: 25.87 pg
MEAN CORPUSCULAR HEMOGLOBIN CONCENTRATION [3]: 39.97 G/DL
MEAN CORPUSCULAR VOLUME [3]: 64.7 fL
MONOCYTE [3]: 0.67%
NEUTROPHIL [3]: 6%
NUCLEATED RED BLOOD CELLS [3]: 0 /100WBC
PLATELET COUNT [3]: 1265.67 x10E3/uL
ALANINE AMINOTRANSFERASE [3]: 40.33 u/L
ALBUMIN [3]: 4.83 G/DL
ALKALINE PHOSPHATASE [3]: 335 u/L
ASPARTATE AMINOTRANSFERASE [3]: 84.67 u/L
BLOOD UREA NITROGEN [3]: 20.33 mg/dL
CARBON DIOXIDE [3]: 26 mmol/L
CHLORIDE [3]: 104 MEQ/L
CHOLESTEROL [3]: 78.67 mg/dL
CREATINE PHOSPHOKINASE [3]: 305 u/L
CREATININE [3]: 0.26 mg/dL
GLUCOSE [3]: 178.33 mg/dL
LACTATE DEHYDROGENASE [3]: 183 u/L
LIPASE [3]: 11.67 u/L
PHOSPHORUS [3]: 15 mg/dL
POTASSIUM [3]: 6.9 MEQ/L
SODIUM [3]: 149.67 MEQ/L
TOTAL BILIRUBIN [3]: 0.13 mg/dL
TOTAL PROTEIN [3]: 6.7 G/DL
URIC ACID [3]: 2.27 mg/dL
